The record followed here is ChEMBL document CHEMBL3045090, “Synthesis, insecticidal activity, and structure-activity relationship of trifluoromethyl-containing phthalic acid diamide structures” (2010).

Common to all, as to type: functional
Assay [1] relates to Plutella xylostella. In words: Insecticidal activity against third-instar larval stage of Plutella xylostella (diamondback moth) in cabbage leaves assessed as mortality at 100 ug/ml treated for 10 secs before larva infestation measured after 3 days by dipping method. To be noted: 72 h.
Assay [2] has as its system Plutella xylostella. In words: Insecticidal activity against third-instar larval stage of Plutella xylostella (diamondback moth) in cabbage leaves assessed as mortality at 100 ug/ml treated for 10 secs before larva infestation measured after 2 days by dipping method. To be noted: 48 h.
Assay [3] concerns Plutella xylostella. Nature of the assay: Insecticidal activity against third-instar larval stage of Plutella xylostella (diamondback moth) in cabbage leaves assessed as mortality at 10 ug/ml treated for 10 secs before larva infestation measured after 3 days by dipping method. To be noted: 72 h.
In assay [4] the test system is Plutella xylostella. Nature of the assay: Insecticidal activity against third-instar larval stage of Plutella xylostella (diamondback moth) in cabbage leaves assessed as mortality at 10 ug/ml treated for 10 secs before larva infestation measured after 2 days by dipping method. To be noted: 48 h.
The test system of assay [5] is Plutella xylostella. In words: Insecticidal activity against third-instar larval stage of Plutella xylostella (diamondback moth) in cabbage leaves assessed as mortality at 0.1 ug/ml treated for 10 secs before larva infestation measured for 3 days by dipping method. The conditions noted are these: 72 h.
In assay [6] the test system is Plutella xylostella. Nature of the assay: Insecticidal activity against third-instar larval stage of Plutella xylostella (diamondback moth) in cabbage leaves assessed as mortality at 0.5 ug/ml treated for 10 secs before larva infestation measured for 3 days by dipping method. To be noted: 72 h.
For assay [7], the system named is Plutella xylostella. Nature of the assay: Insecticidal activity against third-instar larval stage of Plutella xylostella (diamondback moth) in cabbage leaves assessed as mortality at 1 ug/ml treated for 10 secs before larva infestation measured for 3 days by dipping method. The conditions noted are these: 72 h.
Assay [8] concerns Plutella xylostella. In words: Insecticidal activity against third-instar larval stage of Plutella xylostella (diamondback moth) in cabbage leaves assessed as mortality at 5 ug/ml treated for 10 secs before larva infestation measured for 3 days by dipping method. To be noted: 72 h.
Assay [9] deals with Plutella xylostella. Nature of the assay: Insecticidal activity against third-instar larval stage of Plutella xylostella (diamondback moth) in cabbage leaves assessed as mortality treated for 10 secs before larva infestation measured for 3 days by dipping method. To be noted: 72 h.

What is called mortality is the percentage killed. The term LC50 denotes the concentration lethal to half of the exposed cells or organisms.

≈ marks a conversion by molar mass, not a printed value.

As to `COc1ccc(NC(=O)c2cccc(I)c2C(=O)NC(C)(C)CSC)cc1C(F)(F)F`, the mortality at 100 µg/mL in the assay on Plutella xylostella [1] turned out to be 50%; with Plutella xylostella [2], 5%.
For `COc1ccc(C(F)(F)F)cc1NC(=O)c1cccc(I)c1C(=O)NC(C)(C)CS(C)(=O)=O` the same measures were 0% and 0%.
Turning to `CC(C)(CS(C)(=O)=O)NC(=O)c1c(I)cccc1C(=O)Nc1cc(C(F)(F)F)ccc1F`, the mortality at 100 µg/mL in the assay on Plutella xylostella [1] was 67%; with Plutella xylostella [2], 43%.
For the compound `CC(C)(C)NC(=O)c1c(I)cccc1C(=O)Nc1cccc(C(F)(F)F)c1`, the mortality at 10 µg/mL with Plutella xylostella [3] is 100%; in the assay on Plutella xylostella [4], 50%. Further, the mortality at 100 µg/mL with Plutella xylostella [2] worked out at 100%.
Regarding `CC(C)(C)NC(=O)c1c(I)cccc1C(=O)Nc1ccc(Cl)c(C(F)(F)F)c1`, the mortality at 100 µg/mL stood at 100% in the assay on Plutella xylostella [1] and 85% in the assay with Plutella xylostella [2]. Besides, the mortality at 10 µg/mL in the assay on Plutella xylostella [3] was 70%; in the assay on Plutella xylostella [4], 20%.
Consider `COc1ccc(NC(=O)c2cccc(I)c2C(=O)NC(C)(C)C)cc1C(F)(F)F`, for which the figures for the mortality at 100 µg/mL with Plutella xylostella [1] and with Plutella xylostella [2] were 5% and 0%, respectively.
The like results for `CC(C)(C)NC(=O)c1c(I)cccc1C(=O)Nc1cc(F)cc(C(F)(F)F)c1` were, in that order, 76% and 14%.
For `COc1cc(NC(=O)c2cccc(I)c2C(=O)NC(C)(C)C)cc(C(F)(F)F)c1`, the mortality at 100 µg/mL in the assay on Plutella xylostella [1] and with Plutella xylostella [2] was 10% each time.
On to `COc1ccc(C(F)(F)F)cc1NC(=O)c1cccc(I)c1C(=O)NC(C)(C)C`, for which the mortality at 100 µg/mL in the assay on Plutella xylostella [1] and in the assay with Plutella xylostella [2] was 0% throughout.
In the case of `CC(C)(C)NC(=O)c1c(I)cccc1C(=O)Nc1cc(C(F)(F)F)ccc1F`, the mortality at 100 µg/mL turned out to be 62% in the assay on Plutella xylostella [1] and 57% in the assay with Plutella xylostella [2].
In the case of `CC(C)(CS(C)(=O)=O)NC(=O)c1c(I)cccc1C(=O)Nc1cccc(C(F)(F)F)c1`, the mortality at 10 µg/mL in the assay with Plutella xylostella [3] is 100%; in the assay with Plutella xylostella [4], 95%. The mortality at 100 µg/mL in the assay with Plutella xylostella [2] was determined as 100%.
For `CC(C)(CS(C)(=O)=O)NC(=O)c1c(I)cccc1C(=O)Nc1ccc(Cl)c(C(F)(F)F)c1`, the mortality at 0.1 µg/mL in the assay on Plutella xylostella [5] worked out at 4.8%. For the same compound, in the assay on Plutella xylostella [6], the mortality at 0.5 µg/mL turned out to be 29%. Moreover, the mortality at 1 µg/mL in the assay on Plutella xylostella [7] is 52%. The mortality at 10 µg/mL with Plutella xylostella [4] is 100%. The mortality at 5 µg/mL with Plutella xylostella [8] turned out to be 100%. Also, in the assay with Plutella xylostella [9], the LC50 was 0.98 µg/mL (≈ 1.63 µM). The mortality at 100 µg/mL with Plutella xylostella [2] came out at 100%.
As to `CC(C)(CS(C)(=O)=O)NC(=O)c1c(I)cccc1C(=O)Nc1ccc(F)c(C(F)(F)F)c1`, the mortality at 0.1 µg/mL in the assay with Plutella xylostella [5] was found to be 0%. In the assay with Plutella xylostella [6], the mortality at 0.5 µg/mL was 5%. For the same compound, the mortality at 1 µg/mL with Plutella xylostella [7] is 29%. Besides, in the assay with Plutella xylostella [4], the mortality at 10 µg/mL worked out at 100%. In addition, in the assay with Plutella xylostella [8], the mortality at 5 µg/mL is 100%. Besides, the mortality at 100 µg/mL in the assay on Plutella xylostella [2] amounted to 100%.
As for `CC(C)(CS(C)(=O)=O)NC(=O)c1c(I)cccc1C(=O)Nc1ccc(C#N)c(C(F)(F)F)c1`, the mortality at 100 µg/mL was 100% with Plutella xylostella [1] and 57% in the assay on Plutella xylostella [2]. The results for the mortality at 10 µg/mL with Plutella xylostella [3] and with Plutella xylostella [4] were 50% and 0%, respectively.
In the case of `COc1ccc(NC(=O)c2cccc(I)c2C(=O)NC(C)(C)CS(C)(=O)=O)cc1C(F)(F)F`, the mortality at 100 µg/mL with Plutella xylostella [1] and in the assay with Plutella xylostella [2] was 0% throughout.
For `CC(C)(CS(C)(=O)=O)NC(=O)c1c(I)cccc1C(=O)Nc1cc(F)cc(C(F)(F)F)c1`, the results for the mortality at 10 µg/mL in the assay on Plutella xylostella [3] and with Plutella xylostella [4] were 91% and 57%, respectively. Further, in the assay with Plutella xylostella [2], the mortality at 100 µg/mL was 100%.
`CC(C)(CS(C)(=O)=O)NC(=O)c1c(I)cccc1C(=O)Nc1cc(C(F)(F)F)cc(C(F)(F)F)c1`: the mortality at 100 µg/mL was 90% with Plutella xylostella [1] and 40% with Plutella xylostella [2].
The like results for `COc1cc(NC(=O)c2cccc(I)c2C(=O)NC(C)(C)CS(C)(=O)=O)cc(C(F)(F)F)c1` were, in that order, 0% and 0%.
As to `CSCC(C)(C)NC(=O)c1c(I)cccc1C(=O)Nc1cc(F)cc(C(F)(F)F)c1`, the figures for the mortality at 100 µg/mL in the assay with Plutella xylostella [1] and in the assay on Plutella xylostella [2] were 100% and 90%, respectively. Further, the mortality at 10 µg/mL in the assay on Plutella xylostella [3] worked out at 100%; in the assay on Plutella xylostella [4], 43%.
Turning to `CSCC(C)(C)NC(=O)c1c(I)cccc1C(=O)Nc1cc(C(F)(F)F)cc(C(F)(F)F)c1`, the mortality at 100 µg/mL with Plutella xylostella [1] turned out to be 85%; in the assay on Plutella xylostella [2], 71%.
For `COc1cc(NC(=O)c2cccc(I)c2C(=O)NC(C)(C)CSC)cc(C(F)(F)F)c1` the same measures were 5% and 0%.
For `COc1ccc(C(F)(F)F)cc1NC(=O)c1cccc(I)c1C(=O)NC(C)(C)CSC` the same measures were 5% and 5%.
Take `CSCC(C)(C)NC(=O)c1c(I)cccc1C(=O)Nc1cc(C(F)(F)F)ccc1F`: the mortality at 100 µg/mL in the assay on Plutella xylostella [1] was found to be 65%; with Plutella xylostella [2] it was 41%.
Regarding `COCC(C)(C)NC(=O)c1c(I)cccc1C(=O)Nc1cccc(C(F)(F)F)c1`, the mortality at 100 µg/mL in the assay with Plutella xylostella [1] was found to be 100%; in the assay on Plutella xylostella [2] it was 60%. Moreover, the mortality at 10 µg/mL in the assay with Plutella xylostella [3] was 13%; in the assay with Plutella xylostella [4], 0%.
`COCC(C)(C)NC(=O)c1c(I)cccc1C(=O)Nc1ccc(Cl)c(C(F)(F)F)c1`: the mortality at 100 µg/mL came to 52% in the assay on Plutella xylostella [1] and 5% with Plutella xylostella [2].
For `COCC(C)(C)NC(=O)c1c(I)cccc1C(=O)Nc1ccc(C#N)c(C(F)(F)F)c1` the same measures were 0% and 0%.
The like results for `COCC(C)(C)NC(=O)c1c(I)cccc1C(=O)Nc1ccc(OC)c(C(F)(F)F)c1` were, in that order, 0% and 0%.
The like results for `COCC(C)(C)NC(=O)c1c(I)cccc1C(=O)Nc1cc(F)cc(C(F)(F)F)c1` were, in that order, 19% and 10%.
Turning to `COCC(C)(C)NC(=O)c1c(I)cccc1C(=O)Nc1cc(C(F)(F)F)cc(C(F)(F)F)c1`, the mortality at 100 µg/mL in the assay with Plutella xylostella [1] and with Plutella xylostella [2] was 0% throughout.
Consider `COCC(C)(C)NC(=O)c1c(I)cccc1C(=O)Nc1cc(C(F)(F)F)ccc1OC`, for which the mortality at 100 µg/mL in the assay on Plutella xylostella [1] and in the assay with Plutella xylostella [2] was 0% throughout.
Take `COCC(C)(C)NC(=O)c1c(I)cccc1C(=O)Nc1cc(C(F)(F)F)ccc1F`: the mortality at 100 µg/mL came out at 12% with Plutella xylostella [1] and 6% in the assay on Plutella xylostella [2].
As to `CSCC(C)(C)NC(=O)c1c(I)cccc1C(=O)Nc1cccc(C(F)(F)F)c1`, the mortality at 10 µg/mL in the assay with Plutella xylostella [3] came to 100%; in the assay with Plutella xylostella [4], 90%. For the same compound, in the assay on Plutella xylostella [2], the mortality at 100 µg/mL turned out to be 100%.
Take `CSCC(C)(C)NC(=O)c1c(I)cccc1C(=O)Nc1ccc(Cl)c(C(F)(F)F)c1`: the mortality at 0.1 µg/mL with Plutella xylostella [5] was 0%. Moreover, in the assay with Plutella xylostella [6], the mortality at 0.5 µg/mL was found to be 57%. Moreover, in the assay with Plutella xylostella [7], the mortality at 1 µg/mL was 62%. Besides, the mortality at 10 µg/mL in the assay with Plutella xylostella [4] was 100%. Besides, the mortality at 5 µg/mL with Plutella xylostella [8] came to 100%. Also, in the assay with Plutella xylostella [9], the LC50 was determined as 0.42 µg/mL (≈ 0.736 µM). Further, in the assay on Plutella xylostella [2], the mortality at 100 µg/mL came out at 100%.
In the case of `CSCC(C)(C)NC(=O)c1c(I)cccc1C(=O)Nc1ccc(F)c(C(F)(F)F)c1`, in the assay on Plutella xylostella [5], the mortality at 0.1 µg/mL is 0%. Moreover, the mortality at 0.5 µg/mL in the assay with Plutella xylostella [6] worked out at 0%. Also, in the assay on Plutella xylostella [7], the mortality at 1 µg/mL is 33%. Besides, in the assay on Plutella xylostella [4], the mortality at 10 µg/mL was found to be 100%. Moreover, the mortality at 5 µg/mL in the assay on Plutella xylostella [8] was 100%. Besides, the mortality at 100 µg/mL in the assay with Plutella xylostella [2] stood at 100%.
As for `CSCC(C)(C)NC(=O)c1c(I)cccc1C(=O)Nc1ccc(C#N)c(C(F)(F)F)c1`, the mortality at 10 µg/mL stood at 42% with Plutella xylostella [3] and 6% with Plutella xylostella [4]. The mortality at 100 µg/mL in the assay on Plutella xylostella [2] was 100%.
For the compound `Cc1cc(C(F)(C(F)(F)F)C(F)(F)F)ccc1NC(=O)c1cccc(I)c1C(=O)NC(C)(C)CS(C)(=O)=O` [FLUBENDIAMIDE], the mortality at 0.1 µg/mL in the assay on Plutella xylostella [5] came to 20%. Moreover, the figures for the mortality at 10 µg/mL in the assay on Plutella xylostella [3] and in the assay with Plutella xylostella [4] were 100% and 67%, respectively. Further, the mortality at 0.5 µg/mL with Plutella xylostella [6] was found to be 90%. The mortality at 1 µg/mL with Plutella xylostella [7] turned out to be 95%. The mortality at 5 µg/mL in the assay on Plutella xylostella [8] is 100%. The LC50 in the assay with Plutella xylostella [9] amounted to 0.15 µg/mL (≈ 0.22 µM). Moreover, the mortality at 100 µg/mL in the assay on Plutella xylostella [2] was found to be 100%.
